In patent publication US10189839B2, “Tricyclic imidazole compounds as inhibitors of tryptophan hydroxylase” (ACTELION PHARMACEUTICALS LTD, priority 2013, dated 2019):

Molecular target: T1, full length human TPH1 (Homo sapiens, UniProt P17752)
T1 construct: To generate the enzyme, full length human TPH1 is cloned into the plasmid pET20b(+); made in house; host or cells: E. coli
T1 sequence (P17752 1-444): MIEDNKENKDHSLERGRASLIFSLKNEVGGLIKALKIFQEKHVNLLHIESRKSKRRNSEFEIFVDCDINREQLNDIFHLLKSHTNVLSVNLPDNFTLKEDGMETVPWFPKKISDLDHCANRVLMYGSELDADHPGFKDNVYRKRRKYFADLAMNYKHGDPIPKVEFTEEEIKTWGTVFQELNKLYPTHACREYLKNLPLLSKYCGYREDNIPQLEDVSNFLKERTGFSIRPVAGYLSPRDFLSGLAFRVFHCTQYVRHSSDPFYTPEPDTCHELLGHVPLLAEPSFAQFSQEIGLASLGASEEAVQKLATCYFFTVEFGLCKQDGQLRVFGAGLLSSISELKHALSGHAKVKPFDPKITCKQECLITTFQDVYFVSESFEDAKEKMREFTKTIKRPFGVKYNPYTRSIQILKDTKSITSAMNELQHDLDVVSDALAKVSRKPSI
Assay: Biochemical in vitro assay using fluorescence readout (TPH1 enzyme activity)
Conditions: Table 1, mean where determined several times
In short: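 E. coli-expressed full-length human TPH1 (40-80 nM), affinity- and size-exclusion-purified, incubated 60 min at 15° C. in 0.1M Tris-HCl pH 7.6 with 1 mM DTT, 0.2 mg/ml catalase, 100 μM 6-methyltetrahydropterine and 40 μM L-tryptophan. 5-Hydroxy-L-tryptophan read by fluorescence (ex 300/em 540 nm) after HClO4 quench; IC50 versus vehicle, mean where repeated.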

SMILES | IC50 [µM]
CC(C)N(C)C(=O)c1ccc(OCC(=O)N2CCc3nc4n(c3C2c2ccc(Cl)cc2F)CCCC4)c(Cl)n1 (centres unmarked) [Example 1.1.8, 6-chloro-5-(2-(1-(4-chloro-2-fluorophenyl)-3,4,6,7,8,9-hexahydroimidazo[1,2-a:5,4-c′]dipyridin-2(1H)-yl)-2-oxoethoxy)-N-isopropyl-N-methylpicolinamide] | 0.055
CC(=O)N1CCn2c(nc3c2C(c2ncc(C)cc2F)N(C(=O)COc2ccc(N4CCOCC4)nc2Cl)CC3)C1 (centres unmarked) [Example 5.8.1, 1-(7-acetyl-1-(3-fluoro-5-methylpyridin-2-yl)-3,4,6,7,8,9-hexahydropyrido[4′,3′:4,5]imidazo[1,2-a]pyrazin-2(1H)-yl)-2-((2-chloro-6-morpholinopyridin-3-yl)oxy)ethanone] | 0.011
CCc1nc(C)c(C2c3c(nc4n3CCCC4)CCN2C(=O)COc2ccc(NS(C)(=O)=O)nc2Cl)s1 (centres unmarked) [Example 1.11.1, N-(6-chloro-5-(2-(1-(2-ethyl-4-methylthiazol-5-yl)-3,4,6,7,8,9-hexahydroimidazo[1,2-a:5,4-c′]dipyridin-2(1H)-yl)-2-oxoethoxy)pyridin-2-yl)methanesulfonamide] | 0.049
CCc1nc(C(=O)NC2CC2)ccc1OCC(=O)N1CCc2nc3n(c2C1c1ncc(C2CC2)cc1F)CCS3 (centres unmarked) [Example 4.2.1, N-cyclopropyl-5-(2-(5-(5-cyclopropyl-3-fluoropyridin-2-yl)-2,3,7,8-tetrahydrothiazolo[2′,3′:2,3]imidazo[4,5-c]pyridin-6(5H)-yl)-2-oxoethoxy)-6-ethylpicolinamide] | 0.008
CCc1nc(NS(C)(=O)=O)ccc1OCC(=O)N1CCc2nc3n(c2C1c1sccc1F)CCCC3 (centres unmarked) [Example 1.14.1, N-(6-ethyl-5-(2-(1-(3-fluorothiophen-2-yl)-3,4,6,7,8,9-hexahydroimidazo[1,2-a:5,4-c′]dipyridin-2(1H)-yl)-2-oxoethoxy)pyridin-2-yl)methanesulfonamide] | 0.016
CCc1nc(NS(C)(=O)=O)ccc1OCC(=O)N1CCc2nc3n(c2C1c1cc(F)c(C)cc1F)CCS3 (centres unmarked) [Example 4.7.1, N-(5-(2-(5-(2,5-difluoro-4-methylphenyl)-2,3,7,8-tetrahydrothiazolo[2′,3′:2,3]imidazo[4,5-c]pyridin-6(5H)-yl)-2-oxoethoxy)-6-ethylpyridin-2-yl)methanesulfonamide] | 0.006
CCc1nc(C(=O)NC2CC2)ccc1OCC(=O)N1CCc2nc3n(c2C1c1sc(C)nc1C)CCCC3 (centres unmarked) [Example 1.10.15, N-cyclopropyl-5-(2-(1-(2,4-dimethylthiazol-5-yl)-3,4,6,7,8,9-hexahydroimidazo[1,2-a:5,4-c′]dipyridin-2(1H)-yl)-2-oxoethoxy)-6-ethylpicolinamide] | 0.008
CS(=O)(=O)Nc1ccc(OCC(=O)N2CCc3nc4n(c3C2c2ccc(Cl)cc2F)CCCC4)c(Cl)n1 (centres unmarked) [Example 1.1.3, N-(6-chloro-5-(2-(1-(4-chloro-2-fluorophenyl)-3,4,6,7,8,9-hexahydroimidazo[1,2-a:5,4-c′]dipyridin-2(1H)-yl)-2-oxoethoxy)pyridin-2-yl)methanesulfonamide] | 0.026
O=C(NC1CC1)c1ccc(OCC(=O)N2CCc3nc4n(c3C2c2ccc(C3CC3)cc2F)CCCC4)c(Cl)n1 (centres unmarked) [Example 1.8.5, 6-chloro-N-cyclopropyl-5-(2-(1-(4-cyclopropyl-2-fluorophenyl)-3,4,6,7,8,9-hexahydroimidazo[1,2-a:5,4-c′]dipyridin-2(1H)-yl)-2-oxoethoxy)picolinamide] | 0.024
CN(C)C(=O)c1ccc(OCC(=O)N2CCc3nc4n(c3C2c2sc(C(=O)N(C)C)cc2F)CCCC4)c(Cl)n1 (centres unmarked) [Example 1.4.1, 6-chloro-5-(2-(1-(5-(dimethylcarbamoyl)-3-fluoro-thiophen-2-yl)-3,4,6,7,8,9-hexahydroimidazo[1,2-a:5,4-c′]dipyridin-2(1H)-yl)-2-oxoethoxy)-N,N-dimethyl-picolinamide] | 0.055
CNC(=O)c1ccc(OCC(=O)N2CCc3nc4n(c3C2c2sc(C)nc2C)CCCC4)c(Cl)n1 (centres unmarked) [Example 1.10.4, 6-chloro-5-(2-(1-(2,4-dimethylthiazol-5-yl)-3,4,6,7,8,9-hexahydroimidazo[1,2-a:5,4-c′]dipyridin-2(1H)-yl)-2-oxoethoxy)-N-methylpicolinamide] | 0.036
O=C(COc1ccc(N2CCOCC2)nc1Cl)N1CCc2nc3n(c2C1c1sccc1F)CCOC3 (centres unmarked) [Example 6.6.1, 2-((2-chloro-6-morpholinopyridin-3-yl)oxy)-1-(6-(3-fluorothiophen-2-yl)-3,4,8,9-tetrahydro-1H-pyrido[4′,3′:4,5]imidazo[2,1-c][1,4]oxazin-7(6H)-yl)ethanone] | 0.008
CCc1nc(NS(C)(=O)=O)ncc1OCC(=O)N1CCc2nc3n(c2C1c1sc(C)nc1C)CCCC3 (centres unmarked) [Example 1.10.18, N-(5-(2-(1-(2,4-dimethylthiazol-5-yl)-3,4,6,7,8,9-hexahydroimidazo[1,2-a:5,4-c′]dipyridin-2(1H)-yl)-2-oxoethoxy)-4-ethylpyrimidin-2-yl)methanesulfonamide] | 0.121

The next lines start with the values.

IC50 [µM] | SMILES
0.012 | CCc1nc(N2CCCS2(=O)=O)ccc1OCC(=O)N1CCc2nc3n(c2C1c1ccc(Cl)cc1F)CCS3 (centres unmarked) [Example 4.1.6, 1-(5-(4-chloro-2-fluorophenyl)-2,3,7,8-tetrahydrothiazolo[2′,3′:2,3]imidazo[4,5-c]pyridin-6(5H)-yl)-2-((6-(1,1-dioxidoisothiazolidin-2-yl)-2-ethylpyridin-3-yl)oxy)ethanone]
0.007 | CCc1nc(C(=O)NC2CC2)ccc1OCC(=O)N1CCc2nc3n(c2[C@@H]1c1ncc(C2CC2)cc1F)CCCC3 [Example 1.3.3, (R)-N-cyclopropyl-5-(2-(1-(5-cyclopropyl-3-fluoropyridin-2-yl)-3,4,6,7,8,9-hexahydroimidazo[1,2-a:5,4-c′]dipyridin-2(1H)-yl)-2-oxoethoxy)-6-ethylpicolinamide]
0.016 | Cc1ccc(C2c3c(nc4n3CCCC4)CCN2C(=O)COc2ccc(C(=O)NC3CC3)nc2Cl)c(F)c1F (centres unmarked) [Example 1.9.8, 6-chloro-N-cyclopropyl-5-(2-(1-(2,3-difluoro-4-methylphenyl)-3,4,6,7,8,9-hexahydroimidazo[1,2-a:5,4-c′]dipyridin-2(1H)-yl)-2-oxoethoxy)picolinamide]
0.006 | CCc1nc(NS(C)(=O)=O)ccc1OCC(=O)N1CCc2nc3n(c2C1c1ccc(C)c(F)c1F)CCS3 (centres unmarked) [Example 4.4.1, N-(5-(2-(5-(2,3-difluoro-4-methylphenyl)-2,3,7,8-tetrahydrothiazolo[2′,3′:2,3]imidazo[4,5-c]pyridin-6(5H)-yl)-2-oxoethoxy)-6-ethylpyridin-2-yl)methanesulfonamide]
0.004 | CC(=O)N1CCn2c(nc3c2C(c2ccc(C4CC4)cc2F)N(C(=O)COc2ccc(C(=O)N(C)C)nc2Cl)CC3)C1 (centres unmarked) [Example 5.2.13, 5-(2-(7-acetyl-1-(4-cyclopropyl-2-fluorophenyl)-3,4,6,7,8,9-hexahydropyrido[4′,3′:4,5]imidazo[1,2-a]pyrazin-2(1H)-yl)-2-oxoethoxy)-6-chloro-N,N-dimethylpicolinamide]
0.038 | CCc1nc(NS(C)(=O)=O)ccc1OCC(=O)N1CCc2nc3n(c2C1c1sc(C(=O)N(C)C)cc1F)CCCC3 (centres unmarked) [Example 1.4.2, 5-(2-(2-((2-ethyl-6-(methylsulfonamido)pyridin-3-yl)oxy)acetyl)-1,2,3,4,6,7,8,9-octahydroimidazo[1,2-a:5,4-c′]dipyridin-1-yl)-4-fluoro-N,N-dimethylthiophene-2-carboxamide]
0.456 | O=C(COc1cccnc1C(F)(F)F)N1CCc2nc3n(c2C1c1ncc(C2CC2)cc1F)CCNC3 (centres unmarked) [Example 5.4.2, 1-(1-(5-cyclopropyl-3-fluoropyridin-2-yl)-3,4,6,7,8,9-hexahydropyrido[4′,3′:4,5]imidazo[1,2-a]pyrazin-2(1H)-yl)-2-((2-(trifluoromethyl)pyridin-3-yl)oxy)ethanone]
0.131 | CC(C)(O)c1ccc(C2c3c(nc4n3CCCC4)CCN2C(=O)COc2ccc(NS(C)(=O)=O)nc2Cl)c(F)c1 (centres unmarked) [Example 1.24.2, N-(6-chloro-5-(2-(1-(2-fluoro-4-(2-hydroxypropan-2-yl)phenyl)-3,4,6,7,8,9-hexahydroimidazo[1,2-a:5,4-c′]dipyridin-2(1H)-yl)-2-oxoethoxy)pyridin-2-yl)methanesulfonamide]
0.074 | CCc1nc(C)ccc1OCC(=O)N1CCc2nc3n(c2C1c1ccc(C2CC2)cc1F)CCN(C(=O)OC(C)(C)C)C3 (centres unmarked) [Example 5.2.1, tert-butyl 1-(4-cyclopropyl-2-fluorophenyl)-2-(2-((2-ethyl-6-methylpyridin-3-yl)oxy)acetyl)-1,2,3,4,8,9-hexahydropyrido[4′,3′:4,5]imidazo[1,2-a]pyrazine-7(6H)-carboxylate]
0.054 | O=C(NC1CC1)c1ccc(OCC(=O)N2CCc3nc4n(c3C2c2ccc(OCCO)cc2F)CCCC4)c(Cl)n1 (centres unmarked) [Example 1.28.1, 6-chloro-N-cyclopropyl-5-(2-(1-(2-fluoro-4-(2-hydroxyethoxy)phenyl)-3,4,6,7,8,9-hexahydroimidazo[1,2-a:5,4-c′]dipyridin-2(1H)-yl)-2-oxoethoxy)picolinamide]
